According to US10941157B2, “Pesticidal compositions and uses thereof” (Gilead Apollo, LLC, priority 2015, dated 2021):
Values after ≈ are worked out from the molar mass of the structure shown. Where two headings read alike, the source gives them in different places.

Legend:
Format in all cases: cell-based
[1] = test system: Botrtyis cinerea (Bc); assay: In vitro pathogen growth inhibition assay, Bc; details: 48 h
Method in brief: (§1)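 Value reported is the compound concentration reaching ≥90% growth inhibition, from OD readings at 24 and 48 h after blank subtraction, confirmed visually. Inoculum was spores diluted in 17% V8 medium, except Rs, using 1.5 mm mycelial plugs in ¼ PDB; actual compound concentration corrected via OD600.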

[2] = test system: Collectotrichum graminicola (Cg); assay: In vitro pathogen growth inhibition assay, Cg; details: 48 h
Method in brief: as §1

[3] = test system: Diplodia maydis (Dm); assay: In vitro pathogen growth inhibition assay, Dm; details: Stenocarpella maydis, 48 h
Method in brief: (§2)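 Spores in 17% V8 liquid medium, or 1.5 mm Rs mycelial plugs in ¼ PDB, incubated with compound; final concentration checked by OD600 for precipitation. OD readings at 24 and 48 h, blank-subtracted, plus visual ratings; value is concentration giving ≥90% growth inhibition.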

[4] = test system: Fusarium moniliforme (Fm); assay: In vitro pathogen growth inhibition assay, Fm; details: Fusarium verticillioides
Method in brief: as §1

[5] = test system: Fusarium virguliforme (Fv); assay: In vitro pathogen growth inhibition assay, Fv
Method in brief: as §2

[6] = test system: Phytophthora capsici (Pc); assay: In vitro pathogen growth inhibition assay, Pc; details: 48 h
Method in brief: as §2

[7] = test system: Rhizoctonia solani (Rs); assay: In vitro pathogen growth inhibition assay, Rs (mycelial plugs); details: Rhizoctonia solani, 48 h, mycelial plugs
Method in brief: as §2

[8] = test system: Septoria tritici (St); assay: In vitro pathogen growth inhibition assay, St; details: Zymoseptoria tritici, 48 h
Method in brief: as §1

[9] = test system: Saccharomyces cerevisiae (Sc); assay: Yeast growth inhibition assay; details: for IC75: Saccharomyces cerevisiae, ≥75% inhibition, read-out: Compound Concentration (ppm) sufficient for ≥75% inhibition, Sc
Experimental: Both tables list the concentration of each compound that was sufficient to ≥90% inhibition of growth for each of the fungal pathogens listed above. In addition, some of compounds were tested in a yeast growth inhibition assay for Saccharomyces cerevisiae (Sc). Table 2 lists the concentration of the tested compound that was sufficient to ≥75% inhibition of Saccharomyces cerevisiae (Sc).

[10] = ≥90% inhibition, 48 hours vs 2% DMSO control, read-out: Compound Concentration (ppm) sufficient for ≥90% inhibition of growth, Bc
[11] = ≥90% inhibition, 48 hours vs 2% DMSO control, read-out: Compound Concentration (ppm) sufficient for ≥90% inhibition of growth, Cg
[12] = ≥90% inhibition, 48 hours vs 2% DMSO control, read-out: Compound Concentration (ppm) sufficient for ≥90% inhibition of growth, Dm
[13] = ≥90% inhibition, 48 hours vs 2% DMSO control, read-out: Compound Concentration (ppm) sufficient for ≥90% inhibition of growth, Fm
[14] = ≥90% inhibition, 48 hours vs 2% DMSO control, read-out: Compound Concentration (ppm) sufficient for ≥90% inhibition of growth, Fv
[15] = ≥90% inhibition, 48 hours vs 2% DMSO control, read-out: Compound Concentration (ppm) sufficient for ≥90% inhibition of growth, Pc
[16] = ≥90% inhibition, 48 hours vs 2% DMSO control, read-out: Compound Concentration (ppm) sufficient for ≥90% inhibition of growth, Rs
[17] = ≥90% inhibition, 48 hours vs 2% DMSO control, read-out: Compound Concentration (ppm) sufficient for ≥90% inhibition of growth, St

SMILES | IC90 [1, 10] [µg/mL] | IC90 [2, 11] [µg/mL] | IC90 [3, 12] [µg/mL] | IC90 [4, 13] [µg/mL] | IC90 [5, 14] [µg/mL] | IC90 [6, 15] [µg/mL] | IC90 [7, 16] [µg/mL] | IC90 [8, 17] [µg/mL] | IC75 [9] [µg/mL] | IC90 ([1]; ≥90% growth inhibition, 48 hours, vs 2% DMSO control, read-out: Compound Concentration (ppm) sufficient for ≥90% inhibition of Bc) [µg/mL] | IC90 ([2]; ≥90% growth inhibition, 48 hours, vs 2% DMSO control, read-out: Compound Concentration (ppm) sufficient for ≥90% inhibition of Cg) [µg/mL] | IC90 ([3]; ≥90% growth inhibition, 48 hours, vs 2% DMSO control, read-out: Compound Concentration (ppm) sufficient for ≥90% inhibition of Dm) [µg/mL] | IC90 ([4]; ≥90% growth inhibition, 48 hours, vs 2% DMSO control, read-out: Compound Concentration (ppm) sufficient for ≥90% inhibition of Fm) [µg/mL] | IC90 ([5]; ≥90% growth inhibition, 48 hours, vs 2% DMSO control, read-out: Compound Concentration (ppm) sufficient for ≥90% inhibition of Fv) [µg/mL] | IC90 ([6]; ≥90% growth inhibition, 48 hours, vs 2% DMSO control, read-out: Compound Concentration (ppm) sufficient for ≥90% inhibition of Pc) [µg/mL] | IC90 ([7]; ≥90% growth inhibition, 48 hours, vs 2% DMSO control, read-out: Compound Concentration (ppm) sufficient for ≥90% inhibition of Rs) [µg/mL] | IC90 ([8]; ≥90% growth inhibition, 48 hours, vs 2% DMSO control, read-out: Compound Concentration (ppm) sufficient for ≥90% inhibition of St) [µg/mL] | Compound Concentration (ppm) sufficient for ≥75% inhibition of Sc [9] [ppm]
COc1ccccc1[C@H](Cn1c(=O)n(C(C)(C)C(N)=O)c(=O)c2c(C)c(-c3ncco3)sc21)OC1CCC(=O)CC1 [Compound I-154] | 2 (≈ 3.44 µM) | 50 (≈ 86.1 µM) | 10 (≈ 17.2 µM) | 2 (≈ 3.44 µM) | 50 (≈ 86.1 µM) | > 50 | > 50 | > 50 | 3.7 (≈ 6.37 µM) |  |  |  |  |  |  |  |  | 
CCNC(=O)C(C)(C)n1c(=O)c2c(C)c(-c3ncco3)sc2n(C[C@H](OC2CCOCC2)c2ccccc2OC)c1=O [Compound I-169] |  |  |  |  |  |  |  |  |  | 10 (≈ 16.8 µM) | 50 (≈ 83.8 µM) | ≥ 10 | ≥ 0.4 | 50 (≈ 83.8 µM) | > 50 | > 50 | > 50 | 11.0
COc1ccccc1[C@H](Cn1c(=O)n(C(C)(C)C(=O)NC(C)C)c(=O)c2c(C)c(-c3ncco3)sc21)OC(C)C [Compound I-001] | ≥ 0.4 | ≥ 2 | 2 (≈ 3.52 µM) | 0.08 (≈ 0.141 µM) | 0.4 (≈ 0.703 µM) | > 50 | 50 (≈ 87.9 µM) | > 10 | 1.2 (≈ 2.11 µM) |  |  |  |  |  |  |  |  | 
